In DBAASP one finds MIC data, which are given here for 4 compounds.

Some test systems named below: Bacillus subtilis 1A751; Enterococcus faecalis; Klebsiella pneumoniae; Escherichia coli W160-37; Pseudomonas aeruginosa; Salmonella typhimurium; Escherichia coli; Corynebacterium xerosis; Acinetobacter baumannii; Staphylococcus capitis 1; Saccharomyces cerevisiae; Acinetobacter junii RT-4; Bacillus megaterium Bm11; Escherichia coli D21; Escherichia coli JM109; Pseudomonas putida; Pseudomonas fluorescens.

Test in all cases: ≥ marks a high value that may be exact or a test limit, other limits are often not marked, values filed in µg/mL are converted to µM
Experiment [1] concerns Escherichia coli ATCC 25922.
The subject of experiment [2] is Salmonella enterica subsp. enterica serovar Choleraesuis CMCC 50020.
Experiment [3] has as its system Staphylococcus aureus ATCC 25923.
Experiment [4] relates to Staphylococcus epidermidis.
The test system of experiment [5] is Listeria monocytogenes NCTC 7973.
For experiment [6], the system named is Enterococcus faecalis ATCC 29212.
Experiment [7] relates to Staphylococcus haemolyticus.
For experiment [8], the system named is Streptococcus pyogenes ATCC 19615.
Experiment [9] deals with Escherichia coli DH5alpha.
For experiment [10], the system named is Staphylococcus aureus ATCC 43300.
The subject of experiment [11] is Saccharomyces cerevisiae PEP 4/3l.
Experiment [12] relates to Staphylococcus aureus ATCC 8530.
Experiment [13] deals with Staphylococcus aureus SAP 0017.
Experiment [14] concerns Streptococcus pyogenes ATCC 21547.
Experiment [15] concerns Staphylococcus epidermidis ATCC 12228.
For experiment [16], the system named is Candida albicans ATCC 10231.
In experiment [17] the test system is Pseudomonas aeruginosa ATCC 27853.
Experiment [18] relates to Pseudomonas aeruginosa ATCC 15692.
Experiment [19] deals with Acinetobacter baumannii ATCC 19606.
The subject of experiment [20] is Pseudomonas syringae pv. tabaci 1918NCPPB.
Experiment [21] deals with Staphylococcus aureus Cowan 1.
In experiment [22] the test system is Schizosaccharomyces pombe.
The test system of experiment [23] is Yersinia pseudotuberculosis YPIII.
Experiment [24] has as its system Klebsiella oxytoca AB2010143.
The test system of experiment [25] is Salmonella enterica AB2010185.
Experiment [26] relates to Staphylococcus aureus AB94004.
Experiment [27] relates to Enterobacter cloacae subsp. cloacae AB2010162.
Experiment [28] relates to Bacillus magaterium AB90008.
Experiment [29] concerns Candida tropicalis AY91009.
Experiment [30] has as its system Bacillus thuringiensis AB93100.

≈ marks a conversion by molar mass, not a printed value. Where “and” joins values, the source holds several entries; their conditions need not be identical. Identical values can stand only once.

For the compound `CC[C@H](C)[C@H](NC(=O)[C@H](CCCCN)NC(=O)[C@H](CC(=O)O)NC(=O)[C@H](CC(C)C)NC(=O)[C@@H](NC(=O)[C@H](CC(N)=O)NC(=O)[C@H](CC(C)C)NC(=O)[C@H](Cc1ccccc1)NC(=O)[C@H](Cc1ccccc1)NC(=O)[C@H](CCCCN)NC(=O)[C@H](CCCCN)NC(=O)CNC(=O)[C@H](C)NC(=O)[C@H](CCC(N)=O)NC(=O)[C@H](CCCCN)NC(=O)[C@@H](NC(=O)[C@@H](NC(=O)[C@H](CC(=O)O)NC(=O)[C@H](Cc1c[nH]c2ccccc12)NC(=O)[C@H](CC(C)C)NC(=O)CN)[C@@H](C)O)[C@@H](C)CC)C(C)C)C(=O)N[C@@H](CCCN=C(N)N)C(=O)N[C@H]1CSSC[C@@H](C(=O)N[C@@H](CCCN=C(N)N)C(=O)N[C@H](C(=O)O)[C@@H](C)O)NC(=O)CNC(=O)CNC(=O)[C@H](C)NC(=O)[C@H](C(C)C)NC(=O)[C@H](CCCCN)NC1=O` [GLWDTIKQAGKKFFLNVLDKIRCKVAGGCRT], the MIC in experiment [1] was 4.61 µM (≈ 16 µg/mL); in [2] it was not below 36.9 µM; with Bacillus subtilis 1A751 it was 1.15 µM (≈ 4 µg/mL); in [3], 4.61 µM (≈ 16 µg/mL).

As for `CC[C@H](C)[C@H](N)C(=O)N[C@@H](CC(C)C)C(=O)N[C@@H](C)C(=O)N[C@@H](Cc1c[nH]c2ccccc12)C(=O)N[C@@H](CCCCN)C(=O)N[C@@H](Cc1c[nH]c2ccccc12)C(=O)N[C@@H](C)C(=O)N[C@@H](Cc1c[nH]c2ccccc12)C(=O)N[C@@H](Cc1c[nH]c2ccccc12)C(=O)N[C@@H](C)C(=O)N[C@@H](Cc1c[nH]c2ccccc12)C(=O)N[C@@H](CCCN=C(N)N)C(=O)N[C@@H](CCCN=C(N)N)C(N)=O` [ILAWKWAWWAWRR], the MIC in [1] was determined as 14.7 µM (≈ 26.9 µg/mL); in experiment [4], 1.09 µM (≈ 2 µg/mL); with Enterococcus faecalis it was 2 µM (≈ 3.66 µg/mL); in the experiment with Klebsiella pneumoniae it was 50 µM (≈ 91.4 µg/mL); in experiment [5], 0.547 µM (≈ 0.999 µg/mL); against Escherichia coli W160-37 it was 12.2 µM (≈ 22.3 µg/mL). In addition, the MIC in the experiment with Pseudomonas aeruginosa was more than 100 µM; in the experiment on Salmonella typhimurium it was not below 50 µM; in the experiment with Escherichia coli, 4.37 µM (≈ 8 µg/mL); in experiment [6], 4.37 µM (≈ 8 µg/mL); in experiment [7], 1.09 µM and 0.547 µM; against Corynebacterium xerosis it was 0.547 µM (≈ 0.999 µg/mL). The MIC against Acinetobacter baumannii is 5.6 µM (≈ 10.2 µg/mL); in experiment [8], 0.547 µM (≈ 0.999 µg/mL); in experiment [9], not below 45 µM; in experiment [10], 14.7 µM (≈ 26.9 µg/mL); in experiment [11], 6.7 µM (≈ 12.2 µg/mL); in [12], 1.55 µM (≈ 2.83 µg/mL). The minimal inhibitory concentration (MIC) in experiment [13] and in experiment [3] was 2.19 µM (≈ 4 µg/mL) each time.

Regarding `CC(C)C[C@H](NC(=O)[C@H](CC(C)C)NC(=O)[C@H](CCCN=C(N)N)NC(=O)CNC(=O)[C@H](CC(C)C)NC(=O)[C@H](CC(C)C)NC(=O)[C@H](CCCCN)NC(=O)[C@H](CO)NC(=O)[C@H](CC(C)C)NC(=O)[C@H](Cc1c[nH]c2ccccc12)NC(=O)[C@H](CCC(N)=O)NC(=O)[C@H](CC(C)C)NC(=O)[C@@H](N)CC(C)C)C(N)=O` [LLQWLSKLLGRLL], the MIC in experiment [1] was 6 µM (≈ 9.31 µg/mL); in [14], 6 µM (≈ 9.31 µg/mL); in the experiment with Staphylococcus capitis 1 it was 1.5 µM (≈ 2.33 µg/mL); in the experiment with Saccharomyces cerevisiae it was 3 µM (≈ 4.66 µg/mL); in experiment [15], 1.5 µM (≈ 2.33 µg/mL); in experiment [6] it was 3 µM (≈ 4.66 µg/mL). Further, the minimum inhibitory concentration (MIC) in experiment [16] turned out to be 6 µM (≈ 9.31 µg/mL); in experiment [17], 24 µM (≈ 37.2 µg/mL); in experiment [18] it was 12 µM (≈ 18.6 µg/mL); against Acinetobacter junii RT-4, 24 µM (≈ 37.2 µg/mL); in [19], 12 µM (≈ 18.6 µg/mL); in experiment [20], 6 µM (≈ 9.31 µg/mL). Also, the MIC in [21] was found to be 1.5 µM (≈ 2.33 µg/mL); in experiment [22], 3 µM (≈ 4.66 µg/mL); with Bacillus megaterium Bm11, 1.5 µM (≈ 2.33 µg/mL); in experiment [3], 3 µM (≈ 4.66 µg/mL); against Escherichia coli D21, 12 µM (≈ 18.6 µg/mL); in experiment [23], 3 µM (≈ 4.66 µg/mL).

Take `CC[C@H](C)[C@H](NC(=O)[C@H](CC(C)C)NC(=O)[C@H](CCCN=C(N)N)NC(=O)[C@H](CCCCN)NC(=O)[C@@H](NC(=O)[C@@H](NC(=O)CNC(=O)[C@H](CC(C)C)NC(=O)[C@H](CC(C)C)NC(=O)[C@H](CCCN=C(N)N)NC(=O)CNC(=O)[C@H](CO)NC(=O)[C@H](CCC(=O)O)NC(=O)[C@H](CCCN=C(N)N)NC(=O)[C@H](CCC(=O)O)NC(=O)[C@H](CCCCN)NC(=O)[C@H](CCC(=O)O)NC(=O)[C@H](CO)NC(=O)[C@@H](NC(=O)CNC(=O)[C@@H](N)CO)[C@@H](C)O)C(C)C)C(C)C)C(=O)N[C@H](C(=O)N[C@@H](CS)C(=O)N[C@@H](Cc1ccccc1)C(=O)N[C@@H](CCCN=C(N)N)C(=O)N[C@@H](CO)C(=O)N1CCC[C@H]1C(=O)N[C@@H](Cc1ccccc1)C(=O)N1CCC[C@H]1C(N)=O)C(C)C` [SGTSEKERESGRLLGVVKRLIVCFRSPFP]: the MIC in experiment [24] was not below 50.5 µM; in [25], 25 µM (≈ 81.2 µg/mL); in [26], 23.6 µM (≈ 76.6 µg/mL); against Escherichia coli JM109, not below 50.4 µM; in experiment [27], not below 47.9 µM; against Pseudomonas putida it was 24 µM (≈ 77.9 µg/mL). In addition, the minimal inhibitory concentration (MIC) in experiment [28] is 11.8 µM (≈ 38.3 µg/mL); in experiment [9], not below 51.2 µM; against Pseudomonas fluorescens, 23.8 µM (≈ 77.3 µg/mL); in experiment [29], not below 48.6 µM; in [30], not below 46.5 µM.

Broadly, the MIC is the least concentration at which growth counts as inhibited.
